The subject of experiment [1] is HCV replicon in Huh7 cells. Briefly: HCV replicon cell-based assay. Also noted: species or system HCV strain 1B. The settings on record: Hepatitis C virus, Huh-7; HCV replicon, Huh7 cells; read-out: EC50 range. An excerpt:
HCV Replicon Cell-based Assay
This system enabled us to evaluate the effects of our HCV Protease compounds on HCV RNA replication. Briefly, using the HCV strain 1B sequence described in the Lohmann paper (Assession number:AJ238799), an HCV cDNA was generated encoding the 5′ internal ribosome entry site (IRES), the neomycin resistance gene, the EMCV (encephalomyocarditis virus)-IRES and the HCV nonstructural proteins, NS3-NS5B, and 3′ non-translated region (NTR). In vitro transcripts of the cDNA were transfected into the human hepatoma cell line, Huh7. […] Resulting cell lines were characterized for positive and negative strand RNA production and protein production over time.
Huh7 cells, constitutively expressing the HCV replicon, were grown in Dulbecco's Modified Eagle Media (DMEM) containing 10% Fetal calf serum (FCS) and 1 mg/ml G418 (Gibco-BRL). Cells were seeded the night before (1.5×10^4 cells/well) in 96-well tissue-culture sterile plates. Compound and no compound controls were prepared in DMEM containing 4% FCS, 1:100 Penicillin/Streptomysin, 1:100 L-glutamine and 5% DMSO in the dilution plate (0.5% DMSO final concentration in the assay). Compound/DMSO mixes were added to the cells and incubated for 4 days at 37° C. After 4 days, plates were rinsed thoroughly with Phosphate-Buffered Saline (PBS) (3 times 150 μl). The cells were lysed with 25 μl of a lysis assay reagent containing the FRET peptide (RET S1, as described for the in vitro enzyme assay). The lysis assay reagent was made from 5× cell Luciferase cell culture lysis reagent(Promega #E153A) diluted to 1× with distilled water, NaCl added to 150 mM final, the FRET peptide diluted to 10 μM final from a 2 mM stock in 100% DMSO. The plate was then placed into the Cytofluor 4000 instrument which had been set to 340 nm excitation/490 emission, automatic mode for 21 cycles and the plate read in a kinetic mode. EC50 determinations were carried out as described for the IC50 determinations.
Cells were lyzed using the Rneasy kit (Qiagen). […] All primers were designed with ABI Prism 7700 software and obtained from Biosearch Technologies, Novato, Calif. Samples containing known concentrations of HCV RNA transcript were run as standards. Using the following cycling protocol (50° C., 30 min; 95° C., 5 min; 40 cycles of 95° C., 15 sec, 60° C., 1 min), HCV RNA expression was quantitated as described in the Perkin Elmer manual using the ABI Prism 7700 Sequence Detector.
In general terms: In antiviral work, replicon cells carry a viral genome segment that copies itself.

Experiment [2] has as its target HCV NS3/4A protease complex, BMS strain (UniProt P27958, C1454S/C1711G, species not given/STRAIN_BMS). Briefly: Recombinant HCV NS3/4A protease complex FRET peptide assay (BMS strain). It counts as biochemical, HCV genotype 1a. From the text:
Recombinant HCV NS3/4A Protease Complex FRET Peptide Assay
The purpose of this in vitro assay was to measure the inhibition of HCV NS3 protease complexes, derived from the BMS, H77C or J416S strains, as described below, by compounds of the present invention.
Serum from an HCV-infected patient was obtained from Dr. T. Wright, San Francisco Hospital. An engineered full-length cDNA (compliment deoxyribonucleic acid) template of the HCV genome (BMS strain) was constructed from DNA fragments obtained by reverse transcription-PCR(RT-PCR) of serum RNA (ribonucleic acid) and using primers selected on the basis of homology between other genotype 1a strains.
The BMS, H77C and J4L6S strains were used for production of recombinant NS3/4A protease complexes. […] Briefly, a three-lysine solubilizing tail was added at the 3′-end of the NS4A coding region. […] Briefly, NS3/4A expression was induced with 0.5 mM Isopropyl β-D-1-thiogalactopyranoside (IPTG) for 22 hr at 20° C. […] The crude protein extract was loaded on a Nickel—Nitrilotriacetic acid (Ni-NTA) column pre-equilibrated with buffer B (25 mM HEPES, pH8.0, 20% glycerol, 500 mM NaCl, 0.5% Triton-X100, 15 mM imidazole, 5 mM βME). The sample was loaded at a flow rate of 1 mL/min. The column was washed with 15 column volumes of buffer C (same as buffer B except with 0.2% Triton-X100). The protein was eluted with 5 column volumes of buffer D (same as buffer C except with 200 mM Imidazole).
NS3/4A protease complex-containing fractions were pooled and loaded on a desalting column Superdex-S200 pre-equilibrated with buffer D (25 mM HEPES, pH7.5, 20% glycerol, 300 mM NaCl, 0.2% Triton-X100, 10 mM βME). Sample was loaded at a flow rate of 1 mL/min. NS3/4A protease complex-containing fractions were pooled and concentrated to approximately 0.5 mg/ml.
The enzyme was stored at −80° C., thawed on ice and diluted prior to use in assay buffer. […] The sequence of this peptide is loosely based on the NS4A/NS4B natural cleavage site except there is an ester linkage rather than an amide bond at the cleavage site. The peptide substrate was incubated with one of the three recombinant NS3/4A complexes, in the absence or presence of a compound of the present invention, and the formation of fluorescent reaction product was followed in real time using a Cytofluor Series 4000.
The reagents were as follow: HEPES and Glycerol (Ultrapure) were obtained from GIBCO-BRL. Dimethyl Sulfoxide (DMSO) was obtained from Sigma. β-Mercaptoethanol was obtained from Bio Rad.
Substrate: 2 μM final concentration (from a 2 mM stock solution in DMSO stored at −20° C.). HCV NS3/4A type 1a (1b), 2-3 nM final concentration (from a 5 μM stock solution in 25 mM HEPES, pH7.5, 20% glycerol, 300 mM NaCl, 0.2% Triton-X100, 10 mM βME).
The assay was performed in a 96-well polystyrene black plate from Falcon. Each well contained 25 μl NS3/4A protease complex in assay buffer, 50 μof a compound of the present invention in 10% DMSO/assay buffer and 25 μl substrate in assay buffer. A control (no compound) was also prepared on the same assay plate. The enzyme complex was mixed with compound or control solution for 1 min before initiating the enzymatic reaction by the addition of substrate. The assay plate was read immediately using the Cytofluor Series 4000 (Perspective Biosystems). The instrument was set to read an […] at 25° C. Reactions were generally followed for approximately 15 minutes.
The percent inhibition was calculated with the following equation: 100−[(δFinh/δFcon)×100] where δF is the change in fluorescence over the linear range of the curve.

[3] abbreviates: NS3/4A BMS strain; read-out: IC50 range.

Like-named read-outs stand apart in the source and are kept apart here. Where only a bound is given, the exact number is not on record here.

What is called EC50 is the concentration at which the effect is half-maximal. As a reminder, the IC50 is the concentration needed to halve the response being measured. As for `C=CC1C[C@]1(NC(=O)[C@@H]1C[C@@H](Oc2nccc3cc(C)ccc23)CN1C(=O)[C@@H](NC(=O)OC(C)(C)C)C(C)(C)C)C(=O)NS(=O)(=O)C1CC1` (stereo partly drawn) [Compound 210, BOCNH-P3(L-tert-BuGly)-P2[(4R)-(6-methyl isoquinolin-1-oxo)-S -proline]-P1(1R,2S Vinyl Acca)-CONHSO2-Cyclopropane], the concentration giving a half-maximal response (EC50) in experiment [1] is less than 100 nM. Besides, the 50% inhibitory concentration (IC50) in experiment [2] (setting [3]) is less than 100 nM. For `C=C[C@@H]1C[C@]1(NC(=O)[C@@H]1C[C@@H](Oc2nccc3cc(OC)ccc23)CN1C(=O)[C@@H](NC(=O)OC)C(C)(C)C)C(=O)NS(=O)(=O)C1CC1` [Compound 16], in experiment [1], the EC50 fell in the range of 100 to 1000 nM. Moreover, the IC50 in experiment [2] (setting [3]) is less than 100 nM. Consider `C=C[C@@H]1C[C@]1(NC(=O)[C@@H]1C[C@@H](Oc2nccc3cc(OC(F)(F)F)ccc23)CN1C(=O)[C@@H](NC(=O)OC(C)(C)C)C(C)(C)C)C(=O)NS(=O)(=O)C1CC1` [Compound 282], for which the EC50 in experiment [1] fell in the range of 100 to 1000 nM. Moreover, the half-maximal inhibitory concentration (IC50) in experiment [2] (setting [3]) is less than 100 nM. Consider `C=C[C@@H]1C[C@]1(NC(=O)[C@@H]1C[C@@H](Oc2cccc(-c3ccoc3)n2)CN1C(=O)[C@@H](NC(=O)OC(C)(C)C)C(C)(C)C)C(=O)NS(=O)(=O)C1CC1` [Compound 435], for which the EC50 in experiment [1] was in the range of 100 to 1000 nM. In addition, the IC50 in experiment [2] (setting [3]) is less than 100 nM. With `C=C[C@@H]1C[C@]1(NC(=O)[C@@H]1C[C@@H](Oc2nccc3cc(OC)ccc23)CN1C(=O)[C@@H](NC(=O)OCC(C)(C)C)C(C)(C)C)C(=O)NS(=O)(=O)C1CCC1` [Compound 381], the EC50 in experiment [1] was 100 to 1000 nM. In experiment [2] (read-out: IC50 range; NS3/4A BMS strain), the concentration for half-maximal inhibition (IC50) is less than 100 nM. For the molecule `C=C[C@@H]1C[C@]1(NC(=O)[C@@H]1C[C@@H](Oc2nccc3cc(OC)ccc23)CN1C(=O)[C@@H](NC(=O)OC(C)(C)C)C(C)C)C(=O)NS(=O)(=O)C1CC1` [Compound 12], in experiment [1], the EC50 is less than 100 nM. Moreover, the IC50 in experiment [2] (setting [3]) was less than 100 nM.

Take `C=C[C@@H]1C[C@]1(NC(=O)[C@@H]1C[C@@H](Oc2nccc3cc(O)ccc23)CN1C(=O)[C@@H](NC(=O)OC(C)(C)C)C(C)(C)C)C(=O)NS(=O)(=O)C1CC1` [Compound 280]: in experiment [1], the EC50 was less than 100 nM. In addition, the IC50 in experiment [2] (setting [3]) is less than 100 nM.

In the case of `C=C[C@@H]1C[C@]1(NC(=O)[C@@H]1C[C@@H](Oc2nccc3c(OC)cccc23)CN1C(=O)[C@@H](NC(=O)OC(C)(C)C)C(C)(C)C)C(=O)NS(=O)(=O)C1CC1` [Compound 253], in experiment [1], the EC50 is less than 100 nM. Also, the IC50 in experiment [2] (setting [3]) is less than 100 nM.

On to `C=C[C@@H]1C[C@]1(NC(=O)[C@@H]1C[C@@H](Oc2cc(-c3ccccc3)ncn2)CN1C(=O)[C@@H](NC(=O)OC(C)(C)C)C(C)(C)C)C(=O)NS(=O)(=O)C1CC1` [Compound 411], for which the EC50 in experiment [1] is 100 to 1000 nM. Also, the IC50 in experiment [2] (setting [3]) is less than 100 nM. Regarding `C=C[C@@H]1C[C@]1(NC(=O)[C@@H]1C[C@@H](Oc2nccc3cc(OC)ccc23)CN1C(=O)[C@@H](NC(=O)NC(C)(C)C)C(C)(C)C)C(=O)NS(=O)(=O)C1CCC1` [Compound 383], the EC50 in experiment [1] was less than 100 nM. In experiment [2] (setting [3]), the IC50 is less than 100 nM. Regarding `C=C[C@@H]1CC1(NC(=O)[C@@H]1CC(Oc2nccc3cc(OC)ccc23)CN1C(=O)[C@@H](NC(=O)NC(C)(C)C)C(C)(C)C)C(=O)NS(=O)(=O)C1CC1` (stereo partly shown) [Compound 74], the half-maximal effective concentration (EC50) in experiment [1] is less than 100 nM. Take `C=C[C@@H]1C[C@]1(NC(=O)[C@@H]1C[C@@H](Oc2ncc(OC)c3ccc(Cl)cc23)CN1C(=O)[C@@H](NC(=O)OC(C)(C)C)C(C)(C)C)C(=O)NS(=O)(=O)C1CC1` [Compound 277]: the EC50 in experiment [1] was less than 100 nM. In the case of `C=C[C@@H]1C[C@]1(NC(=O)[C@@H]1C[C@@H](Oc2nccc3cc(OC)ccc23)CN1C(=O)[C@@H](NC(=O)N[C@H](C(=O)OC)C(C)(C)C)C(C)(C)C)C(=O)NS(=O)(=O)C1CC1` [Compound 146], the EC50 in experiment [1] was less than 100 nM. Turning to `C=C[C@@H]1C[C@]1(NC(=O)C1C[C@@H](Oc2nc(C(F)(F)F)nc3cc(OC)c(OC)cc23)CN1C(=O)[C@@H](N)C(C)(C)C)C(=O)NS(=O)(=O)C1CC1` (stereo partly shown) [Compound 52], the IC50 in experiment [2] (setting [3]) fell in the range of 1000 to 10000 nM. In the case of `C=C[C@@H]1C[C@]1(NC(=O)[C@@H]1C[C@@H](Oc2ccnc3cc(OC)ccc23)CN1C(=O)[C@@H](NC(=O)OC(C)(C)C)C(C)(C)C)C(=O)NS(=O)(=O)C1CC1` [Compound 376], the EC50 in experiment [1] is less than 100 nM. Regarding `C=CC1CC1(NC(=O)[C@@H]1C[C@@H](Oc2ccnc(N3CCOCC3)n2)CN1C(=O)[C@@H](NC(=O)OC)C(C)(C)C)C(=O)NS(=O)(=O)C1CC1` (stereo partly shown) [Compound 343], the IC50 in experiment [2] (setting [3]) lay in the range of 1000 to 10000 nM. Still for that read-out and setting: in the case of `C=C[C@H]1C[C@@]1(NC(=O)[C@@H]1C[C@@H](Oc2cccc3ccccc23)CN1C(=O)[C@@H](NC(=O)OC(C)(C)C)C(C)(C)C)C(=O)NS(C)(=O)=O` [Compound 471] it was 1000 to 10000 nM; in that of `C=CC1C[C@]1(NC(=O)[C@@H]1C[C@@H](COc2cccc(-c3ccsc3)n2)CN1C(=O)[C@@H](NC(=O)OC)C(C)(C)C)C(=O)NS(=O)(=O)C1CC1` (stereo partly shown) [Compound 353], 10000 to 100000 nM. With `C=CC1C[C@]1(NC(=O)[C@@H]1C[C@@H](Oc2nc(-c3cnccn3)c(OC)c3ccccc23)CN1C(=O)[C@@H](NC(=O)OC(C)(C)C)C(C)(C)C)C(=O)NS(=O)(=O)C1CC1` (stereo partly drawn) [Compound 231, BOCNH-P3(L-t-BuGly)-P2[(4R)-(3-pyrazine-2-yl-4-methoxy -isoquinolin-1-oxo)-S-proline]-P1(1R,2S VinylAcca)-CONHSO2Cyclopropane], in experiment [2] (setting [3]), the IC50 is 1000 to 10000 nM. For the molecule `C=C[C@@H]1C[C@]1(NC(=O)[C@@H]1C[C@@H](Oc2nccc3cc(OC)ccc23)CN1C(=O)[C@@H](NC(=O)N[C@@H](C)COC)C(C)(C)C)C(=O)NS(=O)(=O)C1CC1` [Compound 153], the EC50 in experiment [1] was less than 100 nM. Consider `C=CC1CC1(NC(=O)[C@@H]1C[C@@H](Oc2ccnc(N3CCc4ccccc4C3)n2)CN1C(=O)[C@@H](NC(=O)OC)C(C)(C)C)C(=O)NS(=O)(=O)C1CC1` (stereo partly shown) [Compound 341], for which the IC50 in experiment [2] (setting [3]) is 1000 to 10000 nM.

These data come from patent publication US7915291B2, “Hepatitis C virus inhibitors” (Bristol-Myers Squibb Company, priority 2002, dated 2011).
